The procedure of series [1]:
(§1) The 3xTg-AD mice and WT mice (female, 9 months old) used for the present study were habituated to handling for 14 days prior to the experiment. Female mice were used because the female 3xTg-AD mice develop behavioral deficits faster than the male mice. The selection of the age of 9 months was because the 3xTg-AD mice at this age show neurogenic and neuroplastic deficits but no NFTs or amyloid plaques and are cognitively impaired. Intranasal delivery was carried out manually without anesthesia while the mouse head was restrained in a supine position with the neck in extension, as described. A total of 1.75 U/17.5 μl insulin or 0.9% saline (Veh 1) was delivered over both nares alternatively using a 10 μl Eppendorf pipetter. The mouse was held for an additional 5-10 seconds to ensure the fluid was inhaled. […] All mice were treated with insulin or, as a control, saline daily for 7 consecutive days. […] The brains were removed immediately, and the rostral halves (separated coronally at the bregma level) of the mouse brains were dissected, flash frozen in dry ice, and stored at −80° C. for biochemical analyses at a later date.
Hypothermia is known to be a major factor underlying anesthesia-induced tau hyperphosphorylation. Therefore, the rectal temperature of the mice was determined.

In series [2] the test system is tau protein kinases (GSK-3β, MAPK/ERK, cdk5, CaMKII, JNK). Type of series: in vivo. Here is the method:
as §1
Mouse brain tissue was homogenized in pre-chilled buffer containing 50 mM Tris-HCl (pH 7.4), 50 mM GlcNAc, 20 μM UDP, 2.0 mM EGTA, 2 mM Na3VO4, 50 mM NaF, 20 mM Glycero-phosphate, 0.5 mM AEBSF, 10 μg/ml aprotinin, 10 μg/ml leupeptin, and 4 μg/ml pepstatin A. Protein concentrations of the homogenates were determined by using modified Lowery method. The samples were resolved in 10% or 12.5% SDS-PAGE and electro-transferred onto Immobilon-P membrane (Millipore, Bedford, Mass., USA). The blots were then probed with primary antibody and developed with the corresponding horseradish peroxidase-conjugated secondary antibody and ECL kit (Pierce, Rockford, Ill.). Densitometrical quantification of protein bands in Western blots were analyzed by using the TINA software (Raytest IsotopenmeBgerate GmbH, Straubenhardt, Germany).
Besides PP2A, tau phosphorylation is also regulated by several protein kinases. The levels of several tau protein kinases have been reported to be altered after anesthesia. We therefore determined the levels of the total and the activated form of several tau protein kinases, including glycogen synthase kinase-3β (GSK-3β), mitogen-activated protein kinase/extracellular signal-regulated kinase (MAPK/ERK), cyclin-dependent kinase 5 (cdk5), calcium/calmodulin-dependent protein kinase II (CaMKII), and c-Jun N-terminal kinase (JNK).

Series [3] relates to phosphorylated tau. Kind of series: Immunohistochemical staining of brain sections with 12E8 and PHF-1. It is filed as in vivo, 3xTg-AD mice. The settings on record: frontal cortex; 30 min after propofol; 3xTg-ins/prop vs 3xTg-veh1/prop. Here is the method:
as §1

The subject of series [4] is PP2A. Briefly: Western blot of PP2A-C level, methylation and Tyr307 phosphorylation in brain. The settings on record: intranasal insulin 7 days before propofol. It is filed as in vivo, 3xTg-AD mice. Here is the method: (§2) The 3xTg-AD mice and WT mice (female, 9 months old) used for the present study were habituated to handling for 14 days prior to the experiment. Female mice were used because the female 3xTg-AD mice develop behavioral deficits faster than the male mice. The selection of the age of 9 months was because the 3xTg-AD mice at this age show neurogenic and neuroplastic deficits but no NFTs or amyloid plaques and are cognitively impaired. Intranasal delivery was carried out manually without anesthesia while the mouse head was restrained in a supine position with the neck in extension, as described. A total of 1.75 U/17.5 μl insulin or 0.9% saline (Veh 1) was delivered over both nares alternatively using a 10 μl Eppendorf pipetter. The mouse was held for an additional 5-10 seconds to ensure the fluid was inhaled. […]
(§3) Mouse brain tissue was homogenized in pre-chilled buffer containing 50 mM Tris-HCl (pH 7.4), 50 mM GlcNAc, 20 μM UDP, 2.0 mM EGTA, 2 mM Na3VO4, 50 mM NaF, 20 mM Glycero-phosphate, 0.5 mM AEBSF, 10 μg/ml aprotinin, 10 μg/ml leupeptin, and 4 μg/ml pepstatin A. Protein concentrations of the homogenates were determined by using modified Lowery method. […] Densitometrical quantification of protein bands in Western blots were analyzed by using the TINA software (Raytest IsotopenmeBgerate GmbH, Straubenhardt, Germany).

Series [5] concerns brain insulin signaling. Briefly: Western blot of brain insulin signaling components. The conditions noted are these: intranasal insulin 7 days prior to propofol; 3xTg-ins/prop vs 3xTg-veh1/prop. Type of series: in vivo, 3xTg-AD mice. Here is the method:
as §2, §3
(In western blotting, separated proteins are transferred to a membrane and probed.)

In series [6] the test system is old wild type mice. Kind of series: Morris water maze (MWM) test after anesthesia. Here is the method: This paradigm of anesthesia is similar to that used clinically for surgical patents in the U.S. The cognitive function of the mice was assessed starting on the next day by using the Morris water maze (MWM) test, a widely used cognitive test for rodents.
Probe testing was carried out on the following day after four-day training and was used to evaluate the retrieval of spatial memory.

Series [7] relates to tau phosphorylation. Kind of series: Western blot of tau phosphorylation in brain homogenates of 3xTg-AD mice. Type of series: in vivo. The settings on record: intranasal insulin 1.75 U daily 7 days before propofol, 30 min following propofol. Here is the method: as §2, §3
Setting [8] is: insulin treatment before anesthesia vs anesthesia alone.

Read-outs that look alike come from different tables or passages of the source.

`CC(C)c1cccc(C(C)C)c1O` [propofol] had an average rectal temperature in series [1] (two hours after propofol injection (250 mg/kg i.p.)) of 25.6 °C. This molecule displayed an average rectal temperature in series [1] (within 30 min after propofol injection (250 mg/kg i.p.), from around 38.2° C.) of 28.6 °C. For the same molecule, in series [2] (after anesthesia with propofol), the “GSK-3β and ERK” value is “inhibition”; the JNK entry is “activation”; the “a few other tau kinases” value is “moderate alterations”; the “inhibitory Ser9 phosphorylation of GSK-3β” value is recorded as “dramatic increase”.

Take Insulin: the “number of strongly stained neurons (12E8, PHF-1)” value in series [3] was “markedly reduced”. Besides, in series [4] (after normalization with the PP2A-C level), the “net PP2A methylation” value is given as “not increased”. For the same molecule, the “level and methylation of PP2A in the mouse brain” value in series [4] (normalized with GAPDH, vs 3xTg-veh1/prop) is “significant increase”. Besides, in series [1] (during propofol anesthesia, intranasal insulin 7 days before), the “body temperature, insulin-treated vs untreated mice” value is reported as “no difference”. In addition, in series [5], the “levels of IRβ, IGF-1Rβ, IRβ pY1150/1151, IRS1 pS307, PI3K p85 pY458, PI3K p55 pY199, PDK1, AKT and AKT pT308” value was “up-regulated”. In series [2] (intranasal insulin treatment, propofol-treated mouse brains), the “CDK5, CaMKII pT286 and JNK pT184/pY185” value was “mild to moderate reductions”. Also, the swimming speeds entry in series [6] (among the four groups (control, anesthesia, insulin+anesthesia, insulin)) is given as “not different”. For the same molecule, in series [6] (setting [8]), the “number of platform location crossing during probe test” value is “increased” and the “time to reach the platform location during probe test” value is “decreased”. The spatial learning entry in series [6] (insulin treatment to control mice without anesthesia) is on record as “did not affect spatial learning significantly”. Further, the “learning performance (time to reach the platform, four training days)” value in series [6] (intranasal insulin 1.75 IU/mouse/day for 7 days before one-time anesthesia) is recorded as “as good as control mice”. The “phosphorylation level of tau at Thr212, Ser262/356 (12E8 sites), Ser396/404 (PHF-1 sites), Ser409” value in series [7] (3xTg-ins/prop vs 3xTg-veh1/prop) was “significantly lower”. Further, the “phosphorylation level of tau at Thr181, Ser199, Thr205, Thr231, Ser422” value in series [7] (insulin-treated vs untreated) is on record as “the decreases did not reach statistical significance”.

(Values after US9603905B2, “Intranasal insulin administration for the minimization of anesthesia-induced memory loss” (priority 2014, dated 2017).)
